Experimental data from patent US11897880B2, “7,8-dihydrobenzo[e]pyrido[3,4-c]azocine-2,5(3H,6H)-dione derivatives useful as a factor XIa inhibitors” (Janssen Pharmaceutica NV, priority 2021, dated 2024).
pIC50, pKi: −log10 of the molar value. Read-outs that look alike come from different tables or passages of the source. Peptide text beside a SMILES is read from it. * marks the point of attachment. 5FAM = O=C1OC2(c3ccc(O)cc3Oc3cc(O)ccc32)c2ccc(C(=O)*)cc21; AMC = Cc1cc(=O)oc2cc(N*)ccc12; Cbz = O=C(OCc1ccccc1)*

Key:
Type in all cases: biochemical
[1] = target: T1, Factor XIa (Homo sapiens, UniProt P03951); assay: Kinetic parameters of the peptide substrate 5Fam-KLTRAETV-K5Tamra with FXIa (substrate inhibition model)
Excerpt: A fluorescence intensity (FLINT) based assay was used to monitor inhibition of Factor XIa. The peptide substrate, 5Fam-KLTRAETV-K5Tamra (purchased from New England Peptide) was chosen based on the FXI sequence. Conversion of zymogen FXI to its activated form, FXIa, occurs by proteolytic cleavage by […] at two sites, Arg146 and Arg180. The custom peptide used in this assay was based on the Arg146 cleavage site of FXI. The peptide substrate was designed with a fluorophore-quencher pair, where the fluorescence is quenched until FXIa cleaves the 8-mer peptide after the Arg residue.

[2] = target: T1, Factor XIa; assay: Factor XIa inhibition assay utilizing a fluorophore-quencher pair peptide substrate (FLINT); details: for pIC50: 30 min preincubation, 5Fam-KLTRAETV-K5Tamra substrate 15 μM final, kinetic reads
Procedure, shortened: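 Enzyme preincubated 30 min at room temperature with compound (11-point 3-fold dilution, top 100 nM, 2% DMSO), then 15 μM 5Fam-KLTRAETV-K5Tamra substrate added. Buffer: 50 mM Tris pH 7.5, 100 mM NaCl, 5 mM CaCl2, 0.1 mg/mL BSA, 0.03% CHAPS. Fluorescence (485/520 nm) read kinetically over 30 min; IC50 from 4-parameter logistic fit.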

[3] = target: T2, human plasma kallikrein (Homo sapiens, UniProt P03952); assay: Kallikrein inhibition assay utilizing a quenched AMC peptide substrate (FLINT); details: 30 min preincubation, 50 μM Z-Gly-Pro-Arg-AMC, 2 nM kallikrein
Procedure, shortened: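 Human plasma kallikrein (2 nM final) was preincubated 30 min at room temperature with compound (11-point 3-fold dilution, top 1 μM, 2% DMSO) in pH 7.5 Tris buffer with CaCl2, BSA and CHAPS. Z-Gly-Pro-Arg-AMC (50 μM final) fluorescence was read at 340/440 nm every 5 min for 30 min. IC50 came from a 4-parameter logistic fit.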

[4] = target: T2, human plasma kallikrein; assay: Kinetic parameters of the substrate Z-Gly-Pro-Arg-AMC with kallikrein (Michaelis-Menten fit)
Excerpt: A fluorescence intensity (FLINT) based assay was used to monitor inhibition of human plasma kallikrein. The peptide substrate, Z-Gly-Pro-Arg-AMC (Purchased from Bachem; Catalog #1-1150) was chosen based on its relatively low KM for kallikrein which enables running the assay at lower substrate concentrations to control background fluorescence.

T1 sequence (P03951 388-625 limits assumed): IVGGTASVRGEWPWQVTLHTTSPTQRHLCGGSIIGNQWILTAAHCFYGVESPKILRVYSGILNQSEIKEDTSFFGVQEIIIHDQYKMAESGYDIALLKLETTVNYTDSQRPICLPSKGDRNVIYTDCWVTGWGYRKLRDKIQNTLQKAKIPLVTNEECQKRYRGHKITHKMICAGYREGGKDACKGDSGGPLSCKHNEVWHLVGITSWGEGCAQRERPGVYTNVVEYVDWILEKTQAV
T1 sequence (P03951 19-387 partner limits assumed): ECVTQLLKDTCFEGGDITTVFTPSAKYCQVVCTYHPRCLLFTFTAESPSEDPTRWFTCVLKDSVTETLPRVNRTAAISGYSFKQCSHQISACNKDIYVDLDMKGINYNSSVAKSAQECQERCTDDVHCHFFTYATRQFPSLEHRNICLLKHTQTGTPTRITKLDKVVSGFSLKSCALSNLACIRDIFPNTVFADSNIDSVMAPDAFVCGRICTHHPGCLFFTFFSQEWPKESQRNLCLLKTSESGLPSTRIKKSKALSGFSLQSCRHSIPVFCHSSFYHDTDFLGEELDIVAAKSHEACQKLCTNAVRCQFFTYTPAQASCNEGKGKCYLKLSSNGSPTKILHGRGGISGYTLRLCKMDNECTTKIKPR
T2 sequence (P03952 391-638 limits assumed): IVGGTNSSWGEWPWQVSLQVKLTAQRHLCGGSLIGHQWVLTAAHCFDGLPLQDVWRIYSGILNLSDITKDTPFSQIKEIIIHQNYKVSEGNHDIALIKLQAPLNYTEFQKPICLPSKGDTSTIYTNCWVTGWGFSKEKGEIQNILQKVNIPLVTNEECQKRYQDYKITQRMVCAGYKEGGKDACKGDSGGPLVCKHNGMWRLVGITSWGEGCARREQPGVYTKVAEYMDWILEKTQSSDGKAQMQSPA
T2 sequence (P03952 20-390 partner limits assumed): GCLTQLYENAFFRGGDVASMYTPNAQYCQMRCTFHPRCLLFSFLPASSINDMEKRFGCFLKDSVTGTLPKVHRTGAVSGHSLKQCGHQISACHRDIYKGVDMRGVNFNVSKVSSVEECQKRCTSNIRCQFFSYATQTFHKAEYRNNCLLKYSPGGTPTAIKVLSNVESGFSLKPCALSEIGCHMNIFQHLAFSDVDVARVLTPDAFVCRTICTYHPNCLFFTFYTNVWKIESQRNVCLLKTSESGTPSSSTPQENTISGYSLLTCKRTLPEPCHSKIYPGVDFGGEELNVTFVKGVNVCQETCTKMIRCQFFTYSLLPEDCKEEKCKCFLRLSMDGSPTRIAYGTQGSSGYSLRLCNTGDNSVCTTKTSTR

Row | pIC50 [3] | pIC50 ([2]; read-out: FXIa IC50) | pKi ([2]; read-out: FXIa Ki) | Molecule | further results
1 | < 5.00 | 7.02 | 7.32 | Nc1ccc(-c2cnc([C@H]3CCc4c5c(cc(=O)n43)-c3c(ccc(Cl)c3F)CC3(CC3)NC5=O)[nH]2)c(Cl)n1 (stereo in doubt) [Compound 53, (R*)-12-(5-(6-amino-2-chloropyridin-3-yl)-1H-imidazol-2-yl)-7-chloro-8-fluoro-13,14-dihydro-2H-spiro[benzo[5,6]azocino[4,3-g]indolizine-3,1′-cyclopropane]-1,10(4H,12H)-dione] | –
2 | < 5.00 | 6.65 | 6.95 | Nc1ccc(-c2cnc([C@H]3CCc4c5c(cc(=O)n43)-c3c(ccc(Cl)c3F)CC3(CC3)NC5=O)[nH]2)c(F)n1 (stereo in doubt) [Compound 54, (R*)-12-(5-(6-amino-2-fluoropyridin-3-yl)-1H-imidazol-2-yl)-7-chloro-8-fluoro-13,14-dihydro-2H-spiro[benzo[5,6]azocino[4,3-g]indolizine-3,1′-cyclopropane]-1,10(4H,12H)-dione] | –
3 | 6.92 | 9.00 | 9.30 | COC(=O)Nc1ccc(-c2cnc([C@H](CC3CC3)n3cc4c(cc3=O)-c3c(ccc(Cl)c3F)CC3(CC3)NC4=O)[nH]2)cc1 [Compound 61, Methyl (S)-(4-(2-(1-(11-chloro-12-fluoro-2,5-dioxo-2,5,6,8-tetrahydro-3H-spiro[benzo[e]pyrido[3,4-c]azocine-7,1′-cyclopropan]-3-yl)-2-cyclopropylethyl)-1H-imidazol-5-yl)phenyl)carbamate] | –

The remaining lines, values behind:

Row | Molecule | pIC50 [3] | pIC50 ([2]; read-out: FXIa IC50) | pKi ([2]; read-out: FXIa Ki) | further results
4 | 5Fam-KLTRAETV-K5Tamra (5FAM-KLTRAETV-{K(5-TAMRA)}) [fluorophore-quencher pair peptide substrate based on the Arg146 cleavage site of FXI, purchased from New England Peptide] | – | – | – | pKi ([1]; substrate inhibition constant): 4.21; Km ([1]; substrate with FXIa): 12.4 µM; kcat ([1]; substrate with FXIa): 0.86 s⁻¹
5 | Cn1cncc1-c1cnc([C@H]2CCc3c4c(cc(=O)n32)-c2c(ccc(Cl)c2F)CC2(CC2)NC4=O)[nH]1 (stereo in doubt) [Compound 51, (R*)-7-chloro-8-fluoro-12-(3′-methyl-3H,3H′-[4,4′-biimidazol]-2-yl)-13,14-dihydro-2H-spiro[benzo[5,6]azocino[4,3-g]indolizine-3,1′-cyclopropane]-1,10(4H,12H)-dione] | < 5.00 | – | – | Ki ([2]; cells that print μM themselves in the nM column, read-out: FXIa Ki): > 5 µM; IC50 ([2]; cells that print μM themselves in the nM column, same assay conditions, read-out: FXIa IC50): > 10 µM
6 | Nc1ccc(-c2[nH]c(C3CCc4c5c(cc(=O)n43)-c3cc(Cl)ccc3CC3(CC3)NC5=O)nc2F)c(F)n1 (stereo not shown) [Compound 1, 12-(5-(6-amino-2-fluoropyridin-3-yl)-4-fluoro-1H-imidazol-2-yl)-7-chloro-13,14-dihydro-2H-spiro[benzo[5,6]azocino[4,3-g]indolizine-3,1′-cyclopropane]-1,10(4H,12H)-dione] | 6.27 | 8.82 | 9.10 | –
7 | Nc1ccc(-c2cnc(C3CCc4c5c(cc(=O)n43)-c3cc(Cl)ccc3CC3(CC3)NC5=O)[nH]2)c(F)n1 (stereo not shown) [Compound 2, 12-(5-(6-amino-2-fluoropyridin-3-yl)-1H-imidazol-2-yl)-7-chloro-13,14-dihydro-2H-spiro[benzo[5,6]azocino[4,3-g]indolizine-3,1′-cyclopropane]-1,10(4H,12H)-dione] | 6.33 | 8.52 | 8.82 | –
8 | O=C1NC2(CC2)Cc2ccc(Cl)c(F)c2-c2cc(=O)n3c(c21)CCC3c1ncc(-c2ccnc(CO)c2F)[nH]1 (stereo not shown) [Compound 3, 7-chloro-8-fluoro-12-(5-(3-fluoro-2-(hydroxymethyl)pyridin-4-yl)-1H-imidazol-2-yl)-13,14-dihydro-2H-spiro[benzo[5,6]azocino[4,3-g]indolizine-3,1′-cyclopropane]-1,10(4H,12H)-dione] | 6.10 | 7.82 | 8.12 | –
9 | Nc1ccc(-c2cnc([C@@H]3CCc4c5c(cc(=O)n43)-c3c(ccc(Cl)c3F)CC3(CC3)NC5=O)[nH]2)c(Cl)n1 [Compound 52, (S)-12-(5-(6-amino-2-chloropyridin-3-yl)-1H-imidazol-2-yl)-7-chloro-8-fluoro-13,14-dihydro-2H-spiro[benzo[5,6]azocino[4,3-g]indolizine-3,1′-cyclopropane]-1,10(4H,12H)-dione] | 7.15 | 9.70 | 10.00 | –
10 | Cc1cc(=O)oc2cc(NC(=O)[C@H](CCCNC(=N)N)NC(=O)[C@@H]3CCCN3C(=O)CNC(=O)OCc3ccccc3)ccc12 [Z-Gly-Pro-Arg-AMC] (Cbz-Gly-Pro-Arg-{AMC}) | – | – | – | kcat [4]: 0.76 s⁻¹
